Test results published in patent US20100172836A1, “SYNTHESIS OF 18F-RADIOLABELED STYRYLPYRIDINES FROM TOSYLATE PRECURSORS AND STABLE PHARMACEUTICAL COMPOSITIONS THEREOF” (AVID RADIOPHARMACEUTICALS, INC., priority 2008, published 2010).
Converted amounts (≈) assume the structure as drawn.

Key:
Type in all cases: physicochemical
[1] = Solubility of AV-45 in the drug product composition (visual inspection, HPLC after centrifugation)
Experimental: The ^18F-AV-45 radiopharmaceutical formulation/composition was evaluated for the solubility of the non-radioactive ^19F-AV-45, which is also formed in quantities of 1-5 μg/mL during the radiosynthesis of ^18F-AV-45 due to the presence of small quantities of ^19F-fluoride from tubing, valves and other sources in the radiosynthesis system. In the absence of ethanol in the composition, particulate matter may be observed due to the low solubility of ^19F-AV-45. The addition of 10% ethanol to the radiopharmaceutical composition was, therefore, evaluated to determine if the solubility of ^19F-AV-45 was sufficient to avoid the potential of precipitate formation. […] A visible precipitate was noticeable in solutions with concentrations ≧22 μg/mL. Samples prepared at concentrations ≦20 μg/mL were evaluated by HPLC analysis following centrifugation. Samples with ≦20 μg/mL were also tested after storage for one week at ambient temperature.

[2] = UV purity of ^19F-AV-45 in ^18F-AV-45 Injection (HPLC UV detection at 350 nm, area percent)
Experimental: (§1) The ^18F-AV-45 radiopharmaceutical compositions of embodiments of the invention are remarkably stable to radiolysis or chemical degradation. Sodium ascorbate is used to minimize radiolysis during the purification of ^18F-AV-45 and in the final drug product solution to increase stability and shelf life. Ethanol at 1-10% (v/v) in aqueous solution aids in the solubilization of ^18F-AV-45. […] The compositions were analyzed at end-of-synthesis (EOS) using reverse HPLC, equipped with both an ultra violet (UV) detector and radiochemical detector. The radiochemical purity of ^18F-AV-45 was monitored by HPLC with radiometric detection and the purity of ^19F-AV-45 was monitored by HPLC UV detection in the drug product by Area Percent Normalization.

[3] = Radiochemical purity of ^18F-AV-45 Injection with and without sodium ascorbate (HPLC with radiometric detection)
Experimental: as §1, with “Normalization. At EOS, the radiochemical purity of the ^18F-AV-45 composition prepared without sodium ascorbate was 84% and decomposed further such that at 2 hours the purity was 80%. […] At EOS, the purity was 96% with negligible decomposition at 2 hours post EOS (purity of 95%).” for “Normalization.”

[4] = Extended stability of ^18F-AV-45 Injection formulated with sodium ascorbate at 0.5% (% RCP)
Experimental: as §1
As noted, the radiochemical purity of the ^18F compound is maintained for up to approximately 20 hours after production.

[5] = Stability of ^18F-AV-45 drug product in vials, upright and inverted, at ambient, 40° C. and 50° C. over 12 hours; details: three lots
Experimental: The stability of the drug product was evaluated on three separate manufacturing lots of ^18F-AV-45. Vials were stored upright and inverted at ambient and 40° C. temperatures, and upright at 50° C. Drug product was sampled at the specified intervals over a 12 hour testing period and evaluated for radiochemical purity and strength.

[6] = lot AV4520080304, manufactured without sodium ascorbate (444 MBq/mL), EOS
[7] = lot AV4520080603, manufactured with sodium ascorbate (1036 MBq/mL), EOS

## CNc1ccc(/C=C/c2ccc(OCCOCCOCCF)nc2)cc1 [^19F-AV-45]
[1]; 10% (v/v) EtOH and 0.5% (w/v) sodium ascorbate in 0.9% aqueous sodium chloride, ambient temperature
  solubility limit: 17 µg/mL (≈ 47.2 µM)
[1]; drug product composition (10% EtOH, 0.5% sodium ascorbate, 0.9% NaCl)
  concentrations at which a visible precipitate was noticeable: ≥ 22000 ng/mL
[1]; samples ≦20 μg/mL, ambient temperature, HPLC
  change in concentration after one week of storage: no change in concentration
[2]; lot AV4520080304, manufactured without sodium ascorbate (444 MBq/mL), 2-h post EOS
  UV purity by area percent at 350 nm: 76%
[2]; [6]
  UV purity by area percent at 350 nm: 83%
[2]; lot AV4520080603, manufactured with sodium ascorbate (1036 MBq/mL), 2-h post EOS
  UV purity by area percent at 350 nm: 100%
[2]; [7]
  UV purity by area percent at 350 nm: 100%

## CNc1ccc(/C=C/c2ccc(OCCOCCOCC[18F])nc2)cc1 [^18F-AV-45, (E)-4-(2-(6-(2-(2-(2-[^18F]fluoroethoxy)ethoxy)ethoxy)pyridin-3-yl)vinyl)-N-methylbenzenamine]
[3]; lot AV4520080304, manufactured without sodium ascorbate (444 MBq/mL), 2-hour post EOS
  % ^18F AV-45 Purity (radiochemical): 80%
[3]; lot AV4520080304, manufactured without sodium ascorbate (444 MBq/mL), 2-hour post EOS, listed as 18F AV-45
  % ^18F AV-45 Purity (radiochemical): 80%
[3]; [6]
  % ^18F AV-45 Purity (radiochemical): 84%
[3]; lot AV4520080304, manufactured without sodium ascorbate (444 MBq/mL), EOS, listed as 18F AV-45
  % ^18F AV-45 Purity (radiochemical): 84%
[3]; lot AV4520080603, manufactured with sodium ascorbate (1036 MBq/mL), 2-hour post EOS
  % ^18F AV-45 Purity (radiochemical): 95%
[3]; lot AV4520080603, manufactured with sodium ascorbate (1036 MBq/mL), 2-hour post EOS, listed as 18F AV-45
  % ^18F AV-45 Purity (radiochemical): 95%
[3]; [7]
  % ^18F AV-45 Purity (radiochemical): 96%
[3]; lot AV4520080603, manufactured with sodium ascorbate (1036 MBq/mL), EOS, listed as 18F AV-45
  % ^18F AV-45 Purity (radiochemical): 96%
[4]; approximately 10% (v/v) ethanol in normal saline containing 0.5% (w/v) sodium ascorbate
  time after production for which radiochemical purity is maintained: approximately 20 hours
[4]; composition comprising ethyl alcohol and sodium ascorbate, up to 20 hours post-production
  RCP (stability maintained): greater than 90%
[5]; 10% (v/v) ethanol in normal saline, 0.5% (w/v) sodium ascorbate, vials upright and inverted at ambient and 40° C., upright at 50° C.
  RCP over 12 hours: constant
[5]; over 12 hours, all temperatures tested (ambient, 40° C., 50° C.)
  drift of the drug product strength: < 5%
